Experimental data as given in US6218438A, “Copolymer compositions for treating viral infections” (Supratek Pharma, Inc., priority 1999, dated 2001).

Tests used:
[1] = Solubility of Fe(III)BBNH in Pluronic P85 formulations; format: physicochemical
Method: Various amounts of Fe(III)BBNH were dissolved in 200 μl dimethyl formamide and aliquots (20 μl each) were mixed with the equal volumes of Pluronic P85 solutions of various concentrations in methanol. The water solution of sodium acetate (10 μl) was added to each sample to the final concentration of the salt of 60 mM. The samples were dried by using a speed-vac centrifuge. Each sample was dissolved in 100 μl of 10% Pluronic P85 solution in water. The samples were intensively agitated during two hours at room temperature using a rotator. After that the samples were centrifuged at 10,000 g for 10 min. The supernatants were separated and then diluted with 10% Pluronic P85 solution in water to fit the range of calibration curve. The aliquots (50 μl each) were transferred to 96-well plate and analyzed. The optical densities were determined at λ400 nm using a microplate reader. Fe(III)BBNH concentrations in the samples were then determined by using the calibration shown in Example 4A. Each concentration of Fe(III)BBNH was analyzed in triplicates. Each concentration of Fe306 was measured in triplicates.

cells = assay: Cytotoxicity (general statement); format: cell-based
[2] = Water solubility of Fe(III)BBNH in various Pluronic solutions; format: physicochemical; conditions: 180 min
Method: The samples of Fe(III)BBNH (1 mg of each) were placed in 1 ml of various water solutions of Pluronics. The samples were intensively agitated during three hours at room temperature using a rotator. The samples were then centrifuged at 10,000g for 10 min. The supernatants (500 μl each) were separated and then dried using a speed-vac centrifuge. Each sample was dissolved in 500 μl DMSO and aliquots (50 μl each) were transferred to 96-well plate. The optical densities were determined at λ400 nm using a microplate. The test compound concentrations in the samples were then determined by using the calibration shown in Example 4A. Each concentration of Fe(III)BBNH was analyzed in triplicates. Each concentration of Fe306 was measured in triplicates.

HIV-1 RT = HIV-1 RT (Human immunodeficiency virus type 1 BH10, UniProt P03366); assay: In vitro inhibition of HIV-1 RT enzymatic activities (RDDP, RNase H, DDDP); format: biochemical
[3] = molecular target: T1, HIV-1 reverse transcriptase (p51/p66 RT), DDDP activity (Human immunodeficiency virus type 1 group M subtype B, UniProt P03366); assay: Inhibition of DNA dependent DNA polymerase activity of RT (RT DDDP); format: biochemical
T1 construct: 10 ng of p51/p66 heterodimeric RT per assay were used
Method: BBNH and Fe(III)-BBNH complex at various concentrations were examined for the ability to inhibit RNA dependent and DNA dependent DNA polymerase activities as well as RNAse H activity of HIV-1 reverse transcriptase (RT RDDP, RT DDDP, and RT RNAse H, respectively). To analyze RT RDDP and RT DDDP the following reaction mixture (100 μl total volume) was used: 50 mM Tris-HCl (pH 7.8), 60 mM KCl, 10 mM MgCl2, 10 ng of p51/p66 RT, 0.1-0.5 units of template/primer, and 0.5-25 μM [^3 H]dNTP. Aliquots of the test compounds dissolved in DMSO were added to the reaction mixtures, incubated for 10-20 min. at 37° C. and than quenched with 500 μl of cold 20 mM sodium pyrophosphate in 10% dichloroacetic acid. After 10 min. on ice, the samples were filtered on Whatman 934-AH glass fiber filters and washed with 10% dichloroacetic acid and ethanol, and the radioactivity was determined by liquid scintillation analysis. To analyze RT RNAse H the following reaction mixture (50 μl total volume) was used: 5OmM Tris-HCl (pH 8.0), 60 mM KCl, 8 mM MgCl2, and variable amounts of ([^3 H]rG)-poly(dC). Generally, 10 ng of p51/p66 heterodimeric RT per assay were used. Aliquots of the test compounds dissolved in DMSO were added to the reaction mixtures, incubated for 20 min. at 37° C. and than quenched by placing the tubes on ice followed by the addition of 100 μl of cold 7% perchloric acid. After 10 min. on ice, the samples were centrifuged at 12,000 g for 15 min. 100 μl of the supernatants were carefully removed, and the radioactivity was determined by liquid scintillation analysis.

## CC(C)(C)c1ccc(C(=O)NN=Cc2c(O)ccc3ccccc23)cc1.C[O-].[Cl-].[Cl-].[Fe+3] [Fe(III)-BBNH]
[1]; 1% P85, 1 mg/ml added, 120 min
  Solubility: 1120 µg/mL
[1]; 1% P85, 2 mg/ml added
  Solubility: 2120 µg/mL
[1]; 1% P85, 5 mg/ml added
  Solubility: 1400 µg/mL
[1]; 1% P85, 10 mg/ml added, 120 min
  Solubility: 1390 µg/mL
[1]; 1% P85, 20 mg/ml added, 120 min
  Solubility: 730 µg/mL
[1]; 1% P85, 30 mg/ml added, 120 min
  Solubility: 10 µg/mL
[1]; 1% P85, 40 mg/ml added, 120 min
  Solubility: 30 µg/mL
[1]; 2% P85, 1 mg/ml added, 120 min
  Solubility: 1130 µg/mL
[1]; 2% P85, 2 mg/ml added
  Solubility: 2160 µg/mL
[1]; 2% P85, 5 mg/ml added
  Solubility: 5020 µg/mL
[1]; 2% P85, 10 mg/ml added, 120 min
  Solubility: 3100 µg/mL
[1]; 2% P85, 20 mg/ml added, 120 min
  Solubility: 2710 µg/mL
[1]; 2% P85, 30 mg/ml added, 120 min
  Solubility: 2390 µg/mL
[1]; 2% P85, 40 mg/ml added, 120 min
  Solubility: 420 µg/mL
[1]; 3% P85, 1 mg/ml added, 120 min
  Solubility: 1040 µg/mL
[1]; 3% P85, 2 mg/ml added
  Solubility: 2240 µg/mL
[1]; 3% P85, 5 mg/ml added
  Solubility: 5060 µg/mL
[1]; 3% P85, 10 mg/ml added, 120 min
  Solubility: 7420 µg/mL
[1]; 3% P85, 20 mg/ml added, 120 min
  Solubility: 5150 µg/mL
[1]; 3% P85, 30 mg/ml added, 120 min
  Solubility: 5140 µg/mL
[1]; 3% P85, 40 mg/ml added, 120 min
  Solubility: 2960 µg/mL
[1]; 5% P85, 1 mg/ml added, 120 min
  Solubility: 1090 µg/mL
[1]; 5% P85, 2 mg/ml added
  Solubility: 2080 µg/mL
[1]; 5% P85, 5 mg/ml added
  Solubility: 5090 µg/mL
[1]; 5% P85, 10 mg/ml added, 120 min
  Solubility: 10510 µg/mL
[1]; 5% P85, 20 mg/ml added, 120 min
  Solubility: 10360 µg/mL
[1]; 5% P85, 30 mg/ml added, 120 min
  Solubility: 12250 µg/mL
[1]; 5% P85, 40 mg/ml added, 120 min
  Solubility: 10480 µg/mL
[1]; 10% P85, 1 mg/ml added, 120 min
  Solubility: 1080 µg/mL
[1]; 10% P85, 2 mg/ml added
  Solubility: 2060 µg/mL
[1]; 10% P85, 5 mg/ml added
  Solubility: 5160 µg/mL
[1]; 10% P85, 10 mg/ml added, 120 min
  Solubility: 10710 µg/mL
[1]; 10% P85, 20 mg/ml added, 120 min
  Solubility: 19060 µg/mL
[1]; 10% P85, 30 mg/ml added, 120 min
  Solubility: 22870 µg/mL
[1]; 10% P85, 40 mg/ml added, 120 min
  Solubility: 26240 µg/mL
cells
  cytotoxicity: virtually no cytotoxicity
[2]; Pluronic F87 (2% w/v) in water
  Solubility of Fe(III)BBNH: 992.5 µg/mL
[2]; Pluronic F108 (2% w/v) in water
  Solubility of Fe(III)BBNH: 86.5 µg/mL
[2]; Pluronic F127 (2% w/v) in water
  Solubility of Fe(III)BBNH: 113.6 µg/mL
[2]; Pluronic L44 (2% w/v) in water
  Solubility of Fe(III)BBNH: 986.8 µg/mL
[2]; Pluronic L61 (1% w/v) in water
  Solubility of Fe(III)BBNH: 3.5 µg/mL
[2]; Pluronic L64 (2% w/v) in water
  Solubility of Fe(III)BBNH: 996.6 µg/mL
[2]; Pluronic L81 (2% w/v) in water
  Solubility of Fe(III)BBNH: 175.3 µg/mL
[2]; Pluronic P84 (1% w/v) in water
  Solubility of Fe(III)BBNH: 987.2 µg/mL
[2]; Pluronic P85 (1% w/v) in water
  Solubility of Fe(III)BBNH: 998.3 µg/mL
[2]; Pluronic P123 (2% w/v) in water
  Solubility of Fe(III)BBNH: 125.7 µg/mL
HIV-1 RT
  inhibitory activity against RT in vitro compared to the parent uncomplexed BBNH: improved inhibitory activity compared to the parent uncomplexed BBNH
[3]
  IC50: 900 ± 300 nM
  Ratio BBNH/Fe(III)-BBNH (IC50), RT DDDP: 13.5
